According to patent US20260265771A1, “METHODS OF INCREASING THE REGENERATION EFFICIENCY IN PLANTS” (Institute of Genetics and Developmental Biology Chinese …, priority 2022, published 2026):
Entries after “also recorded” stand apart in the source; their conditions may differ.

Test system: SIWIND1 promoter
Experiment: SIWIND1 promoter activity (pSIWIND1::GUS) in cut hypocotyls
Assay type: cell-based, tomato
Conditions: cut hypocotyls on MS medium with or without 1 nM REF1
Protocol: (a) Induction of the SIWIND1 promoter activity at the wound sites of hypocotyl explants. Hypocotyl explants of 7-d-old pSIWIND1::GUS plants were cultured on MS medium with or without 1 nM REF1. Representative images of hypocotyls at indicated time after wounding are shown. Bars, 1 mm. […] Hypocotyls of 7-d-old seedlings of the indicated genotypes were cut and hypocotyl explants were cultured on MS medium for 9 h before gene expression analysis. Hypocotyls of undamaged seedlings were harvested as control. Data are mean±SD, n=3 biological repeats. (c and d) REF1-induced callus formation in WT and sIwind1 mutants. Hypocotyl explants were cultured on CIM with or without 1 nM REF1 for 14 d before callus phenotype was scored. Shown are representative callus images (c) and quantification of the callus projection area (d). […] Hypocotyl explants were cultured on CIM for 14 d and then transferred to SIM with or without 1 nM REF1 for 21 d before shoot organogenesis phenotype was scored. […] Hypocotyl explants were cultured on CIM for 14 d before callus phenotype was scored. Shown are representative callus images (g) and quantification of the callus projection area (h). […] Hypocotyl explants were cultured on CIM for 14 d and then transferred to SIM for 21 d before shoot organogenesis phenotype was scored. […] In (h) and (j), statistical significance was determined by a student's t test (***p<0.001, **p<0.01, *p<0.05). […]

## ATDRRGRPPSRPKVGSGPPPQNN (listed as Solanum lycopersicum) [REF1, 23 amino acid tomato peptide cleaved from precursor PROSIPEP]
  SIWIND1 promoter activity / expression: enhanced; also recorded: promoting SIWIND1 expression
